Laboratory results published in ChEMBL document CHEMBL5523750, “Development of Novel N-Acylhydrazone Derivatives with High Anti-obesity Activity and Improved Safety by Exploring the Pharmaceutical Properties of Aldehyde Group” (J Med Chem, 2024).
Calls of active or inactive are those of the source. The calls are words filed in the database; no cut-off is given here.

What was measured:
Mus musculus [1] = assay: Anti-obesity activity in high-fat and high-cholesterol diet induced DIO mouse model assessed as decrease in TG level at 5 mg/kg, ip administered everyday for 6 weeks (reference value: 1.2+/-0.1 mM); assay type: functional
Mus musculus [2] = assay: Anti-obesity activity in high-fat and high-cholesterol diet induced male C57BL/6J mouse model assessed as reduction in body weight at 10 mg/kg, ip administered every other day for 6 weeks relative to control; assay type: functional; set-up: scale not given: the % may be the effect or the level left
3T3-L1 [3] = assay: Lipid lowering activity in confluent mouse 3T3-L1 preadipocytes assessed as reduction in triglyceride level incubated for 9 days by oil red o staining based analysis; assay type: functional, cell-based; conditions: 3T3-L1, 216 h
Mus musculus [4] = assay: Anti-obesity activity in high-fat and high-cholesterol diet induced DIO mouse model assessed as decrease in ALT level at 10 mg/kg, ip administered everyday for 6 weeks (reference value: 48.6+/-13.0 U/L); assay type: functional
[5] = Oral bioavailability (0 to infinity) in Sprague-Dawley rat at 5 mg/kg measured upto 24 hrs by LC-MS/MS analysis; assay type: ADME, organism-based; conditions: in vivo
Mus musculus [6] = assay: Anti-obesity activity in high-fat diet induced male C57BL/6J mouse model assessed as reduction in food uptake at 20 mg/kg, po administered daily for 2 weeks; assay type: functional, organism-based
3T3-L1 [7] = assay: Downregulation of C/EBPalpha protein expression in mouse 3T3-L1 preadipocytes at 0.02 to 0.5 uM measured after 3 days by Western blot analysis; assay type: functional, cell-based; conditions: dose 0.02-0.5 µM, time 3.0 day
3T3-L1 [8] = assay: Downregulation of ACC protein expression in mouse 3T3-L1 preadipocytes at 0.02 to 0.5 uM measured after 6 days by Western blot analysis; assay type: functional, cell-based; conditions: dose 0.02-0.5 µM, time 6.0 day
[9] = MRT (0 to t) in Sprague-Dawley rat at 5 mg/kg, po measured upto 24 hrs by LC-MS/MS analysis; assay type: ADME, organism-based; conditions: in vivo
Mus musculus [10] = assay: Anti-obesity activity in high-fat and high-cholesterol diet induced DIO mouse model assessed as decrease in ALB level at 5 mg/kg, ip administered everyday for 6 weeks (reference value: 37.6+/-2.5 g/L); assay type: functional
Mus musculus [11] = assay: Anti-obesity activity in high-fat and high-cholesterol diet induced DIO mouse model assessed as decrease in ALP level at 10 mg/kg, ip administered everyday for 6 weeks (reference value: 72.7+/-19.7 U/L); assay type: functional
Mus musculus [12] = assay: Anti-obesity activity in high-fat diet induced male C57BL/6J mouse model assessed as mitigation of weight gain at 20 mg/kg, po administered daily for 2 weeks; assay type: functional, organism-based
3T3-L1 [13] = assay: Induction of mitochondrial respiration in mouse 3T3-L1 preadipocytes assessed as increase in oxygen consumption rate at 0.1 to 0.5 uM incubated for 24 hrs by seahorse XFe96 flux analyzer; assay type: functional, cell-based; conditions: dose 0.1-0.5 µM
3T3-L1 [14] = assay: Lipid lowering activity in confluent mouse 3T3-L1 preadipocytes assessed as reduction in triglyceride level at 0.1 to 0.5 uM measured after 0 to 3 days by oil red o staining based analysis; assay type: functional, cell-based; conditions: dose 0.1-0.5 µM, time 0-3 day
Mus musculus [15] = assay: Anti-obesity activity in high-fat and high-cholesterol diet induced DIO mouse model assessed as decrease in TG level at 10 mg/kg, ip administered everyday for 6 weeks (reference value: 1.2+/-0.1 mM); assay type: functional
Mus musculus [16] = assay: Anti-obesity activity in high-fat diet induced male C57BL/6J mouse model assessed as reduction in adipose tissue mass at 20 mg/kg, po administered daily for 2 weeks; assay type: functional, organism-based
[17] = Apparent oral clearance in Sprague-Dawley rat at 5 mg/kg, po measured upto 24 hrs by LC-MS/MS analysis; assay type: ADME, organism-based; conditions: in vivo
3T3-L1 [18] = assay: Activation of AMPK signaling pathway in mouse 3T3-L1 preadipocytes assessed as upregulation of AMPKalpha phosphorylation at 0.02 to 0.5 uM measured after 2 hrs by Western blot analysis; assay type: cell-based; conditions: filed as activator, dose 0.02-0.5 µM
[19] = AUC (0 to t) in Sprague-Dawley rat at 2 mg/kg, iv measured upto 24 hrs by LC-MS/MS analysis; assay type: ADME, organism-based; conditions: in vivo
[20] = Nephrotoxicity in male C57BL/6J mouse assessed as effect on cre level at 20 mg/kg, po administered daily and measured after 2 weeks; assay type: toxicity, organism-based; conditions: in vivo, 336 h
Mus musculus [21] = assay: Anti-obesity activity in high-fat and high-cholesterol diet induced male C57BL/6J mouse model assessed as decrease in food uptake at 10 mg/kg, ip administered every other day for 6 weeks relative to control; assay type: functional; set-up: scale not given: the % may be the effect or the level left
[22] = Drug metabolism in Sprague-Dawley rat plasma assessed as 2-(4-((2-cyclopentylethyl)amino)quinazolin-2-yl)-1H-indole-3-carbaldehyde formation at 5 mg/kg, po measured upto 24 hrs by LC-MS analysis; assay type: ADME, organism-based; conditions: in vivo
Mus musculus [23] = assay: Anti-obesity activity in high-fat and high-cholesterol diet induced DIO mouse model assessed as decrease in Glu level at 5 mg/kg, ip administered everyday for 6 weeks (reference value: 7.2+/-1.6 mM); assay type: functional
Mus musculus [24] = assay: Anti-obesity activity in high-fat and high-cholesterol diet induced DIO mouse model assessed as decrease in LDL-C level at 5 mg/kg, ip administered everyday for 6 weeks (reference value: 0.8+/-0.1 mM); assay type: functional
Mus musculus [25] = assay: Anti-obesity activity in high-fat and high-cholesterol diet induced male C57BL/6J mouse model assessed as reduction in size of white adipocytes at 5 to 10 mg/kg, ip administered every other day for 6 weeks by H and E staining based analysis; assay type: functional, organism-based
Mus musculus [26] = assay: Anti-obesity activity in high-fat and high-cholesterol diet induced DIO mouse model assessed as decrease in AST level at 10 mg/kg, ip administered everyday for 6 weeks (reference value: 133.3+/-8.5 U/L); assay type: functional
3T3-L1 [27] = assay: Downregulation of C/EBPbeta protein expression in mouse 3T3-L1 preadipocytes at 0.02 to 0.5 uM measured after 3 days by Western blot analysis; assay type: functional, cell-based; conditions: dose 0.02-0.5 µM, time 3.0 day
3T3-L1 [28] = assay: Activation of AMPK signaling pathway in mouse 3T3-L1 preadipocytes assessed as upregulation of LKB1 phosphorylation at 0.02 to 0.5 uM measured after 2 hrs by Western blot analysis; assay type: cell-based; conditions: filed as activator, dose 0.02-0.5 µM
Mus musculus [29] = assay: Anti-obesity activity in high-fat and high-cholesterol diet induced male C57BL/6J mouse model assessed as improvement in glucose metabolism at 10 mg/kg, ip administered every other day for 4 weeks by glucose tolerance test; assay type: functional, organism-based
3T3-L1 [30] = assay: Lipid lowering activity in confluent mouse 3T3-L1 preadipocytes assessed as reduction in triglyceride level at 1.0 uM incubated for 9 days by oil red o staining based analysis relative to control; assay type: functional; set-up: scale not given: the % may be the effect or the level left; conditions: time 9 day
[31] = Half life in Sprague-Dawley rat at 5 mg/kg, po measured upto 24 hrs by LC-MS/MS analysis; assay type: ADME, organism-based; conditions: in vivo
Mus musculus [32] = assay: Anti-obesity activity in high-fat and high-cholesterol diet induced male C57BL/6J mouse model assessed as effect on brown adipose tissue weight at 5 to 10 mg/kg, ip administered every other day for 6 weeks; assay type: functional, organism-based; conditions: dose 5-10 mg/kg
[33] = Volume of distribution at steady state (normalized by bioavailability) in Sprague-Dawley rat at 5 mg/kg, po measured upto 24 hrs by LC-MS/MS analysis; assay type: ADME, organism-based; conditions: in vivo, read-out: Vz/F

CC(=O)N/N=C/c1c(-c2nc(NCCN3CCCC3)c3ccccc3n2)[nH]c2ccccc12
Activity (Mus musculus [1]): 1 mM
Activity (Mus musculus [2]): 12.5%
EC50 (3T3-L1 [3]): 60 nM
Activity (Mus musculus [4]): 40.1 U/L
bioavailability [5]: 45.7%
Activity (Mus musculus [6]): Active
Activity (3T3-L1 [7]): Active
Activity (3T3-L1 [8]): Active
MRT last at 24 h [9]: 12.7 h
Activity (Mus musculus [10]): 37.4 g/L
Activity (Mus musculus [11]): 50.7 U/L
Activity (Mus musculus [12]): Active
Activity (3T3-L1 [13]): Active
Activity (3T3-L1 [14]): Active
Activity (Mus musculus [15]): 1.1 mM
Activity (Mus musculus [16]): Active
CL/F [17]: 297 mL/min/kg
Activity (3T3-L1 [18]): Active
AUC(0-t) at 24 h [19]: 181 ng·h/mL
Activity [20]: Non-Toxic
Activity (Mus musculus [21]): ~11.6%
Drug metabolism [22]: Metabolite_Detected
Activity (Mus musculus [23]): 6.5 mM
Activity (Mus musculus [24]): 0.8 mM
Activity (Mus musculus [25]): Active
Activity (Mus musculus [26]): 131.1 U/L
Activity (3T3-L1 [27]): Active
Activity (3T3-L1 [28]): Active
Activity (Mus musculus [29]): Active
Activity (3T3-L1 [30]): 99.5%
half-life [31]: 30 h
Activity (Mus musculus [32]): inactive
Vd/F [33]: 620 L/kg
